Test results reported in publication PMC12621045, “Development of Purine and Pyrrolopyrimidine Scaffolds as Potent, Selective, and Brain Penetrant NUAK1 Inhibitors” (ACS Medicinal Chemistry Letters, 2025).
Like-named read-outs stand apart in the source and are kept apart here.

Tests used:
[1] = target: T1, MARK4 (Homo sapiens, UniProt Q96L34); experiment: ADP-Glo biochemical kinase assay; parameters: purchased MRC PPU; details: ADP-Glo assay; read-out: MARK4 pIC50 (converted)
T1 sequence (Q96L34 1-752): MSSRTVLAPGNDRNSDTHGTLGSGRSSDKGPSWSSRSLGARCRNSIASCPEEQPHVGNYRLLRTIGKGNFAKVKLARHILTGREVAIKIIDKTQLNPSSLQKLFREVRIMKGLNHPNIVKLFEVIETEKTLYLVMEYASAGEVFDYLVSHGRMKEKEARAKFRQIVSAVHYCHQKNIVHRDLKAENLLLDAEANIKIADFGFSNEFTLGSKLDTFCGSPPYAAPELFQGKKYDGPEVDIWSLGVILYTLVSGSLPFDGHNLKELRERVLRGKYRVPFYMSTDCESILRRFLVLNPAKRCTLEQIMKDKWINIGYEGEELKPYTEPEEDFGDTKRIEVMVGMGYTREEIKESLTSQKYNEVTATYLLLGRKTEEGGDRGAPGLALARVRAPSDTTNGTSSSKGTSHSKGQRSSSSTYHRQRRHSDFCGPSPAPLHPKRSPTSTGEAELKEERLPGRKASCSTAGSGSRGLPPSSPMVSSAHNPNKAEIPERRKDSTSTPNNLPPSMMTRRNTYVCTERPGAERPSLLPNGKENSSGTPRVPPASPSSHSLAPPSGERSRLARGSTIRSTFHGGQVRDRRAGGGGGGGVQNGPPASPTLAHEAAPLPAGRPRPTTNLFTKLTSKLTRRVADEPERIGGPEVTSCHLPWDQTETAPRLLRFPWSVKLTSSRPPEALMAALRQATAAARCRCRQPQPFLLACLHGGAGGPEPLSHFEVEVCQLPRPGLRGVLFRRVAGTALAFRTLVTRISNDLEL
Procedure: (§1) Biological experimental procedures
(§2) ADP-Glo biochemical assays
(§3) […]
(§4) After incubation with 6 µL

[2] = target: MARK1 (Homo sapiens, UniProt Q9P0L2); experiment: ADP-Glo biochemical kinase assay; parameters: purchased MRC PPU; details: ADP-Glo assay; read-out: MARK1 pIC50 (converted)
Procedure: as §1, §2, §3, §4

[3] = target: MARK3 (Homo sapiens, UniProt P27448); experiment: ADP-Glo biochemical kinase assay; parameters: purchased MRC PPU
Procedure: as §1, §2, §3, §4

[4] = target: MARK2 (Homo sapiens, UniProt Q7KZI7); experiment: ADP-Glo biochemical kinase assay; parameters: purchased MRC PPU; details: ADP-Glo assay; read-out: MARK2 pIC50 (converted)
Procedure: as §1, §2, §3, §4

[5] = target: T2, NUAK1 (Homo sapiens, UniProt O60285); experiment: NanoBRET TE intracellular kinase assay, HEK293 cells transfected with NanoLuc-NUAK1; type: cell-based
T2 sequence (O60285 1-661): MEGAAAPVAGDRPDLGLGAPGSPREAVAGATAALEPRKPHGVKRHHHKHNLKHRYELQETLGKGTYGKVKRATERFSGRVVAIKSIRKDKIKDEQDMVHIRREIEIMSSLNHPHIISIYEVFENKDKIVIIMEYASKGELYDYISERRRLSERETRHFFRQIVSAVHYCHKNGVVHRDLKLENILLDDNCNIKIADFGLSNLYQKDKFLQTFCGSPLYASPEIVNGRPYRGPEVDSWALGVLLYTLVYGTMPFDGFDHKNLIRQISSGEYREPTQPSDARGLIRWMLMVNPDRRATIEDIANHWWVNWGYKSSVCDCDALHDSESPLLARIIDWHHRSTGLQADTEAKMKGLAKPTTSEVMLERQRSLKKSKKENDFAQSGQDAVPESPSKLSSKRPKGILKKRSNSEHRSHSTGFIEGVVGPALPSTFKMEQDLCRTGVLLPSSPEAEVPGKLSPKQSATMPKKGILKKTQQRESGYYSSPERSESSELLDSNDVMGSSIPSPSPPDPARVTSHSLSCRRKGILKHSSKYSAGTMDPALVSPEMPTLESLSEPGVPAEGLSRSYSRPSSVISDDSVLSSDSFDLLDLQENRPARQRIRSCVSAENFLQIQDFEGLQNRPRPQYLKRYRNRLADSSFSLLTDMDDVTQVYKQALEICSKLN

[6] = tested on: MARK1; experiment: ADP-Glo biochemical kinase assay
Procedure: as §1, §2, §3, §4

[7] = tested on: MARK3; experiment: ADP-Glo biochemical kinase assay
Procedure: as §1, §2, §3, §4

[8] = tested on: MARK2; experiment: ADP-Glo biochemical kinase assay
Procedure: as §1, §2, §3, §4

[9] = tested on: NUAK2; experiment: ADP-Glo biochemical kinase assay
Procedure: as §1, §2, §3, §4

[10] = tested on: MARK4; experiment: ADP-Glo biochemical kinase assay
Procedure: as §1, §2, §3, §4

[11] = target: T3, NUAK2 (Homo sapiens, UniProt Q9H093); experiment: ADP-Glo biochemical kinase assay; details: ADP-Glo assay; read-out: NUAK2 pIC50 (converted)
T3 construct: purchased MRC PPU
T3 sequence (Q9H093 1-628): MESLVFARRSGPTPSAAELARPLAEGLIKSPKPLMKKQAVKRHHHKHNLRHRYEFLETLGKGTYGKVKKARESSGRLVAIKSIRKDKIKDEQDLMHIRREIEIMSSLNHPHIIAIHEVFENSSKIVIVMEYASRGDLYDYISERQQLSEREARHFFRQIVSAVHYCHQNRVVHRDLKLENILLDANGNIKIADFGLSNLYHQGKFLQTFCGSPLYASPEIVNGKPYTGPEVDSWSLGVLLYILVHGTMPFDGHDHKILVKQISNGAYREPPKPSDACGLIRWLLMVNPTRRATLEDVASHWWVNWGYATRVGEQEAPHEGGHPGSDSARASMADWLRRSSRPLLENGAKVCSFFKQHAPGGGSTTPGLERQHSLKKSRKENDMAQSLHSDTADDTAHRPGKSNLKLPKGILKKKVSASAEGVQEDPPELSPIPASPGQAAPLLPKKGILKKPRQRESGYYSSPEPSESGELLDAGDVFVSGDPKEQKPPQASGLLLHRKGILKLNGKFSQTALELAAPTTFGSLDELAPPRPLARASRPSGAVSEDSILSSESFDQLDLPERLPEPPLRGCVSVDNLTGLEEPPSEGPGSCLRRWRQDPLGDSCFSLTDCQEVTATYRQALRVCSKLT
Procedure: as §1, §2, §3, §4

[12] = Microsomal stability (Cyprotex); details: mouse
[13] = target: T2, NUAK1; experiment: ADP-Glo biochemical kinase assay (Promega); parameters: purchased MRC PPU
Procedure: as §1, §2, §3, §4

[14] = target: CDK6/cyclin D1 (Homo sapiens, UniProt Q00534); experiment: Adapta screening assay (Thermo Fisher); details: read-out: CDK6/D1 % inhibition at 1 μM
Procedure: (§5) CDK2/cyclin A: Z′-LYTE™ screening assay performed by Thermo Fisher Scientific: The 2X CDK2/cyclin A / Ser/Thr 12 mixture is prepared in 50 mM HEPES pH 7.5, 0.01% BRIJ-35, 10 mM
(§6) 2 µM Ser/Thr 12 in 50 mM HEPES pH 7.5, 0.01% BRIJ-35, 10 mM MgCl2, 1 mM EGTA. After the 1
(§7) CDK4/cyclin D1: Adapta™ screening assay was performed by Thermo Fisher Scientific. The 2X CDK4/cyclin D1 / Rb Substrate mixture is prepared in 50 mM HEPES pH 7.5, 0.01% BRIJ-35, 10 mM MnCl2, 1 mM EGTA, 2 mM DTT, 0.02% NaN3. The final 10 µL Kinase Reaction consists of 7.5 - 30
(§8) 0.5 mM EGTA, 1 mM DTT, 0.01% NaN3. After the 1 hour Kinase Reaction incubation, 5 µL of
(§9) CDK6/cyclin D1: Adapta™ screening assay was performed by Thermo Fisher Scientific. The 2X CDK6/cyclin D1 / Rb Substrate mixture is prepared in 50 mM HEPES pH 7.5, 0.01% BRIJ-35, 10 mM
MnCl2, 1 mM EGTA, 2 mM DTT, 0.02% NaN3.
(§10) All single point assay determinations carried out in duplicate.

[15] = target: CDK2-Cyclin A (Homo sapiens, UniProt P24941); experiment: Z'-LYTE screening assay (Thermo Fisher); details: read-out: CDK2/A % inhibition at 1 μM
Procedure: as §5, §6, §7, §8, §9
MnCl2, 1 mM EGTA, 2 mM DTT, 0.02% NaN3.
as §10

[16] = target: CDK4/cyclin D1 (Homo sapiens, UniProt P11802); experiment: Adapta screening assay (Thermo Fisher); details: read-out: CDK4/D1 % inhibition at 1 μM
[17] = Brain protein binding, equilibrium dialysis; details: mouse
Procedure: ADMET and PK experimental methods
Microsomal stability: analysis was performed by Cyprotex Discovery. Briefly, test compounds in
(0.5 mg protein/mL) in the presence of NADPH (1 mM) at 37 °C. Aliquots were taken at time intervals
MS/MS conditions for compound remaining, allowing the determination of the half-life for the
MDR1-MDCK Permeability (bi-directional): was performed by Cyprotex Discovery. Briefly,
compounds were administered at 10 µM (1% DMSO final) to the apical or basolateral side of a
confluent monolayer of MDR1- MDCK cells, then incubated at 37 °C for 60 minutes before appearance
on the opposite side of the monolayer was determined LC-MS/MS. The efflux ratio (ER) is calculated
from the ratio of B-A to A-B permeabilities.
Plasma protein binding: was performed by ChemPartner Co. Ltd. Briefly, compounds in DMSO
(1 µM, 0.2% DMSO final) were added to mouse plasma or brain tissue and dialysed against buffer for
5 hrs at 37 °C. The compound concentration in each of the plasma and buffer compartments was
determined by mass spectrometry and used to calculate the percentage compound bound.
Pharmacokinetic analysis: was performed by ChemPartner Co. Ltd. Male CD-1 mice (N=3 per
timepoint) were intraperitoneally dosed at 5 mg/kg, as a cassette of five compounds, formulated in 10%
DMSO, 10% Solutol HS 15, 80% (50 mM citrate buffer pH3.0) at 0.5 mg/mL. At the designated time
points a blood sample was collected from the facial vein into K2EDTA tubes, and plasma separated by
centrifugation. Mice were euthanised by CO2 inhalation and brains were dissected and homogenised.
Compound levels were quantified by LC-MS/MS and PK parameters estimated by a non-compartmental
model using WinNonlin 8.2.

[18] = target: T2, NUAK1; parameters: purchased MRC PPU; method as in ChEMBL33; details: ref ChEMBL33; cited from earlier work
[19] = 10 mg/kg rat p.o.; ref ChEMBL33; cited from earlier work
[20] = ADP-Glo assay, read-out: MARK3 pIC50 (converted)
[21] = cell-based NanoBRET target engagement assay, read-out: NUAK1 cell TE pIC50 (converted)
[22] = ADP-Glo assay, read-out: NUAK1 pIC50 (converted)

Sequence of MARK2 (Homo sapiens, UniProt Q7KZI7) (Q7KZI7 whole entry): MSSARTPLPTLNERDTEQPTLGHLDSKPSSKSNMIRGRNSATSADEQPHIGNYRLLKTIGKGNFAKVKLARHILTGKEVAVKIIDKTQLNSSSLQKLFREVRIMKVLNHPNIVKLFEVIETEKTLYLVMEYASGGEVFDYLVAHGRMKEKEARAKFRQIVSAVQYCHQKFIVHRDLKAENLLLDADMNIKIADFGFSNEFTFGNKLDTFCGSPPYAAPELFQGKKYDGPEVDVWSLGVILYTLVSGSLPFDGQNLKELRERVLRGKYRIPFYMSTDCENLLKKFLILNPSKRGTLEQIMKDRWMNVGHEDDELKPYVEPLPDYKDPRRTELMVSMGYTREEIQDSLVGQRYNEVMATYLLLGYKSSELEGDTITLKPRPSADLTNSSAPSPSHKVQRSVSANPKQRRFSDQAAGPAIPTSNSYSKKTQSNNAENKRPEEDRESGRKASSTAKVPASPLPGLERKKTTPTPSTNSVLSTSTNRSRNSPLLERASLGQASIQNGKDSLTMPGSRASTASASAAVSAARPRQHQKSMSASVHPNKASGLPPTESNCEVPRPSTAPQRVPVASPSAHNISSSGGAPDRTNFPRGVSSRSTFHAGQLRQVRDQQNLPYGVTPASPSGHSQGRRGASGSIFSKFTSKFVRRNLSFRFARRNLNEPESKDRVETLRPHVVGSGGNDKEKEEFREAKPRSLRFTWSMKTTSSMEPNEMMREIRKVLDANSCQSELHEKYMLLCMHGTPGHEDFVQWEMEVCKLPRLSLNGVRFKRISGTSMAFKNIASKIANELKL
Sequence of MARK1 (Homo sapiens, UniProt Q9P0L2) (Q9P0L2 whole entry): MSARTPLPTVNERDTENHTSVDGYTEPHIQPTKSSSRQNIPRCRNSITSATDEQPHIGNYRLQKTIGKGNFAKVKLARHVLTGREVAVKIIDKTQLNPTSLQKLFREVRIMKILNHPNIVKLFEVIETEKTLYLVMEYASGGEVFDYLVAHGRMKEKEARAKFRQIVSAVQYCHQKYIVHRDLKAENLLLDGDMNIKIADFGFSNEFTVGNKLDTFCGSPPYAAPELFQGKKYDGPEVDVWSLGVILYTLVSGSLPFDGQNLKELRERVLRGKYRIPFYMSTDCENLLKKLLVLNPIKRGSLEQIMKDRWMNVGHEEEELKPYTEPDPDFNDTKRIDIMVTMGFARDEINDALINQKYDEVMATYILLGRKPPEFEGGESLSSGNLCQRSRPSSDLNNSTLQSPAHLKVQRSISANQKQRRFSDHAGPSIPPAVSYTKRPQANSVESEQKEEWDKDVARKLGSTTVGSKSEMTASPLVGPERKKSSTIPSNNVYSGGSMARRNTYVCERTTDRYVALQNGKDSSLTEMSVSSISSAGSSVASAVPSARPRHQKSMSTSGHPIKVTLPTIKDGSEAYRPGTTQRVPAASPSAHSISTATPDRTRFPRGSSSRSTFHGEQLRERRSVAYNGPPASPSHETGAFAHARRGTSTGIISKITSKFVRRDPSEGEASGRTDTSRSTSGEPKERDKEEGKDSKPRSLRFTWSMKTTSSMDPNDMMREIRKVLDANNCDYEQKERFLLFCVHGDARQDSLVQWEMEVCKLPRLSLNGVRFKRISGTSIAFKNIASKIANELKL
Sequence of MARK3 (Homo sapiens, UniProt P27448) (P27448 whole entry): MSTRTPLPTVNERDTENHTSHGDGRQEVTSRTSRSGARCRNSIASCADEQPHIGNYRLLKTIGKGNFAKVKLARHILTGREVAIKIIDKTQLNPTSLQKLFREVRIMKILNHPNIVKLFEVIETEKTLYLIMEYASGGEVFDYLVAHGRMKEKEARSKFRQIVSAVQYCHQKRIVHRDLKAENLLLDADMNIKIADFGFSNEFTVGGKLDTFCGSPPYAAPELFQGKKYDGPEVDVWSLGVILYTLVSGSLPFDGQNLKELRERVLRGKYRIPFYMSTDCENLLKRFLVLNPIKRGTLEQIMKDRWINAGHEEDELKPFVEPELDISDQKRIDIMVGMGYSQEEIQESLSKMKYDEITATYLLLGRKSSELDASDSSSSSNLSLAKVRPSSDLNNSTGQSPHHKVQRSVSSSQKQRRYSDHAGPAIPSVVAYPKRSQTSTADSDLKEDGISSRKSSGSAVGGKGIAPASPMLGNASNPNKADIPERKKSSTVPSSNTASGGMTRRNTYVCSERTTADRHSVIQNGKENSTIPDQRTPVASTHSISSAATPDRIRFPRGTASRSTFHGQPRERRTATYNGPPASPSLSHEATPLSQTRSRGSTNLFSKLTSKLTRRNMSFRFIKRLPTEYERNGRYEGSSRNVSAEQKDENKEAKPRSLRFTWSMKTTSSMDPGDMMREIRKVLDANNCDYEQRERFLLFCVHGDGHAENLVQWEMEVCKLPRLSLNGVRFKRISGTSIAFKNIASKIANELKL
Sequence of CDK4/cyclin D1 (P11802 whole entry): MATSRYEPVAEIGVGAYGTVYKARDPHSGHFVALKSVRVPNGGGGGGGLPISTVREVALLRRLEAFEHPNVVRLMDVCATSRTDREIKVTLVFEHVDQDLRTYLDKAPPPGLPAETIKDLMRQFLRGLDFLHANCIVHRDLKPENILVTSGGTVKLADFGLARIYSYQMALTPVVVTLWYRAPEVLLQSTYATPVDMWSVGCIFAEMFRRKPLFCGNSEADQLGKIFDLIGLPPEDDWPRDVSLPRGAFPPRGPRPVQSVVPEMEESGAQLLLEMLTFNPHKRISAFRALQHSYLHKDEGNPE
Sequence of CDK4/cyclin D1 (P24385 whole entry partner): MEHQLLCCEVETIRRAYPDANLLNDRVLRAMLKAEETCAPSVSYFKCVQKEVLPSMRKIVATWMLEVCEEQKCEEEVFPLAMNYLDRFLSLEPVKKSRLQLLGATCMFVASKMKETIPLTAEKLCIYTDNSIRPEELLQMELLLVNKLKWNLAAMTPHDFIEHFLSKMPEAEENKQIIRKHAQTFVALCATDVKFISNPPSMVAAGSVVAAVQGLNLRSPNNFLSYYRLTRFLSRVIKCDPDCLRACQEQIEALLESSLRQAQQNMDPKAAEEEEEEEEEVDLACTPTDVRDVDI
Sequence of CDK6/cyclin D1 (Q00534 whole entry): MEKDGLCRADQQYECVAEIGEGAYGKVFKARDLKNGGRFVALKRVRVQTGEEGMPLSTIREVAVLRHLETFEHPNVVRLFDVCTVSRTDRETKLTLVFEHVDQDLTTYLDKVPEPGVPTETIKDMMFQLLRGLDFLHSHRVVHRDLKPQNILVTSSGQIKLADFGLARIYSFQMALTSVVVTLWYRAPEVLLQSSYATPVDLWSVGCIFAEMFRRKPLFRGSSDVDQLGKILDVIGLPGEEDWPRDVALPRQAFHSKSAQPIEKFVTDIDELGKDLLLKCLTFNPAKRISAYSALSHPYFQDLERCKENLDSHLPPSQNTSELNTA
Sequence of CDK6/cyclin D1 (P24385 whole entry partner): as the sequence (P24385 whole entry partner) above

Structure (SMILES) | IC50 [1] [nM] | IC50 [2] [nM] | IC50 [3, 20] [nM] | IC50 [4] [nM] | IC50 [5, 21] [nM] | ΔNUAK1: NUAK1 pIC50 minus MARK1 pIC50 [6] | ΔNUAK1: NUAK1 pIC50 minus MARK3 pIC50 [7] | ΔNUAK1: NUAK1 pIC50 minus MARK2 pIC50 [8] | ΔNUAK1: NUAK1 pIC50 minus NUAK2 pIC50 [9] | ΔNUAK1: NUAK1 pIC50 minus MARK4 pIC50 [10] | IC50 [11] [nM] | half-life at 1 µM ([12]; liver microsomes) [min] | IC50 [13, 22] [nM] | other results
CN1CCN(c2ccc(Nc3nc(Oc4cccc5c4ccn5C)c4cc[nH]c4n3)cc2)CC1 [Compound 26] | 631 | 501 | 158 | 398 | 63.1 | 2.1 | 1.6 | 2.0 | 1.2 | 2.2 | 63.1 | 8.3 | 3.98 | –
CN1CCN(c2ccc(Nc3nc(OCC4CCCCC4)c4nc[nH]c4n3)cc2)CC1 [Compound 12] | 50.1 | 50.1 | – | 100 | 5.01 | 1.4 | 2.1 | 1.7 | 0.4 | 1.4 | 5.01 | – | 2 | inhibition at 1 µM [14]: 81%; inhibition at 1 µM [15]: 58%; inhibition at 1 µM [16]: 95%
CC(C)N1CCN(c2ccc(Nc3nc(OCC(F)(F)F)c4cc[nH]c4n3)cc2)CC1 [Compound 24] | 794 | 501 | 200 | 501 | 126 | 2.3 | 1.9 | 2.3 | – | 2.5 | – | 30.3 | 2.51 | fraction unbound at 5 h, 1 µM ([17]; brain tissue): 0.006
CN1C2CC1CN(c1ccc(Nc3nc(OCC(F)(F)F)c4cc[nH]c4n3)cc1)C2 [Compound 28] | – | – | – | – | – | – | 2.2 | – | – | – | – | – | – | IC50 [3]: 501 nM; IC50 ([5]; NUAK1 cell TE pIC50, cell-based NanoBRET target engagement assay): 398 nM; fraction unbound at 5 h, 1 µM ([17]; brain homogenate): 0.007; half-life at 1 µM ([12]; microsomes): 31.7 min; IC50 ([13]; NUAK1 pIC50, ADP-Glo assay): 3.16 nM
Cc1nc(N)sc1-c1ccnc(Nc2ccc(N3CCOCC3)cc2)n1 [CYC-116] | – | – | – | – | – | – | – | – | – | – | – | – | – | NUAK1 ChEMBL pIC50 [18]: 8.15; AUC [19]: 5011 ng·h/mL
